Data set [1] deals with T1, Tyrosine-protein kinase JAK2 (Homo sapiens, UniProt O60674). In words: Inhibition of recombinant human C-terminal His6-tagged JAK2 (808 to end residues) expressed in baculovirus infected Sf21 insect cells using Biotin-TYR1 (Biotin-(Ahx)-GAEEEIYAAFFA-COOH as substrate.
Data set [2] is filed under the species Homo sapiens. Kind of data set: Selectivity ratio of IC50 for inhibition of recombinant human C-terminal His6-tagged JAK2 (808 to end residues) expressed in baculovirus infected Sf21 insect cells to IC50 for inhibition of recombinant human GST-tagged JAK3 catalytic domain (811 to 1103 residues) expressed in Sf9 insect cells.
The species entered for data set [3] is Homo sapiens. In words: Selectivity ratio of IC50 for inhibition of recombinant human GST-tagged JAK1 catalytic domain (845 to 1142 residues) expressed in Sf9 insect cells to IC50 for inhibition of recombinant human GST-tagged JAK3 catalytic domain (811 to 1103 residues) expressed in Sf9 insect cells.
Data set [4] deals with T2, Tyrosine-protein kinase JAK3 (Homo sapiens, UniProt P52333).
T2 sequence (P52333 whole entry): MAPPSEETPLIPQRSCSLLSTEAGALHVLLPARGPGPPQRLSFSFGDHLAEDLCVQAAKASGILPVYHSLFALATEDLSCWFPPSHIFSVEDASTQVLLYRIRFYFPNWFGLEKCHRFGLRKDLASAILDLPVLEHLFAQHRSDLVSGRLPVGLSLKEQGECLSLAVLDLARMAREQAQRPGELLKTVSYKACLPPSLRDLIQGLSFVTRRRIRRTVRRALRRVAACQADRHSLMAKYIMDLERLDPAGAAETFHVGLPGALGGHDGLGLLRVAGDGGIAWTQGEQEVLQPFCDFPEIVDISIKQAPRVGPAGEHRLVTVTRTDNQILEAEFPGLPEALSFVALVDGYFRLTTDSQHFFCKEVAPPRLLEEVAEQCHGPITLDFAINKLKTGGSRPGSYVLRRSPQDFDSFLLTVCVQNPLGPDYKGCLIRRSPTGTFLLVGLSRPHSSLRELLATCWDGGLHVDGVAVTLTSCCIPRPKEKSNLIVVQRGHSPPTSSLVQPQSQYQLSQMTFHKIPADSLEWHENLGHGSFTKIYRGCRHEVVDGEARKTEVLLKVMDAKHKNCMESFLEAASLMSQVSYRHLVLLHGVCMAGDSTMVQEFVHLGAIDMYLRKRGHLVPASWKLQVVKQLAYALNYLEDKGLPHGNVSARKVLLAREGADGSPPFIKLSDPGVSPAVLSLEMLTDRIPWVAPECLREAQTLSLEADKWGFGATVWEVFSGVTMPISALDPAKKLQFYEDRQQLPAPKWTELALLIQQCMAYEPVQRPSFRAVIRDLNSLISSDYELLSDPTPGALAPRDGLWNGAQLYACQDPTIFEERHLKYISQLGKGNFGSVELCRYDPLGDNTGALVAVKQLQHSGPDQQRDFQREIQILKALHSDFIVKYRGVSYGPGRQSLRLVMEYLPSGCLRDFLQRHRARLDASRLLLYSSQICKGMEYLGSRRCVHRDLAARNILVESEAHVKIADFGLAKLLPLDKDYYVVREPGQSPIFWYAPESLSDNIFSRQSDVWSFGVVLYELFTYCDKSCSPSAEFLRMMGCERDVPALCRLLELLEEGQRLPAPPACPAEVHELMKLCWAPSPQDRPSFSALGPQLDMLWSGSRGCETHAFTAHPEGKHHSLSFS

In data set [5] the target is T1, Tyrosine-protein kinase JAK2. Format: ADME.
For data set [6], the target named is Tyrosine-protein kinase JAK1 (Homo sapiens, UniProt P23458). Kind of data set: Inhibition of recombinant human GST-tagged JAK1 cytoplasmic domain (866 to 1154 residues) expressed in baculovirus expression system using TK-substrate-biotin preincubated for 5 mins followed by substrate addition and measured after 30 mins by HTRF assay.
Data set [7] addresses Non-receptor tyrosine-protein kinase TYK2 (Homo sapiens, UniProt P29597). Kind of data set: Inhibition of recombinant human N-terminal GST-tagged TYK2 cytoplasmic domain (833 to 1187 residues) expressed in baculovirus expression system using TK-substrate-biotin preincubated for 5 mins followed by substrate addition and measured after 30 mins by HTRF assay.
A short description of data set [8]: Cytotoxicity against resting mouse T cells assessed as reduction in cell viability at 10 uM measured after 72 hrs by MTS assay. Format: cell-based.
Data set [9] in a line: Cytotoxicity against IL-4-treated mouse T cells assessed as reduction in cell viability at 10 uM measured after 72 hrs by MTS assay. Format: cell-based.
For a further data set, the system named is RAW264.7. In words: Cytotoxicity against mouse RAW264.7 cells assessed as reduction in cell viability at 10 uM measured after 72 hrs by MTS assay. Type of data set: cell-based. As to conditions: raw264.7, 72 h.
Data set [10] has as its target T3, Tyrosine-protein kinase JAK3 (Mus musculus) (UniProt Q62137).
T3 sequence (whole entry): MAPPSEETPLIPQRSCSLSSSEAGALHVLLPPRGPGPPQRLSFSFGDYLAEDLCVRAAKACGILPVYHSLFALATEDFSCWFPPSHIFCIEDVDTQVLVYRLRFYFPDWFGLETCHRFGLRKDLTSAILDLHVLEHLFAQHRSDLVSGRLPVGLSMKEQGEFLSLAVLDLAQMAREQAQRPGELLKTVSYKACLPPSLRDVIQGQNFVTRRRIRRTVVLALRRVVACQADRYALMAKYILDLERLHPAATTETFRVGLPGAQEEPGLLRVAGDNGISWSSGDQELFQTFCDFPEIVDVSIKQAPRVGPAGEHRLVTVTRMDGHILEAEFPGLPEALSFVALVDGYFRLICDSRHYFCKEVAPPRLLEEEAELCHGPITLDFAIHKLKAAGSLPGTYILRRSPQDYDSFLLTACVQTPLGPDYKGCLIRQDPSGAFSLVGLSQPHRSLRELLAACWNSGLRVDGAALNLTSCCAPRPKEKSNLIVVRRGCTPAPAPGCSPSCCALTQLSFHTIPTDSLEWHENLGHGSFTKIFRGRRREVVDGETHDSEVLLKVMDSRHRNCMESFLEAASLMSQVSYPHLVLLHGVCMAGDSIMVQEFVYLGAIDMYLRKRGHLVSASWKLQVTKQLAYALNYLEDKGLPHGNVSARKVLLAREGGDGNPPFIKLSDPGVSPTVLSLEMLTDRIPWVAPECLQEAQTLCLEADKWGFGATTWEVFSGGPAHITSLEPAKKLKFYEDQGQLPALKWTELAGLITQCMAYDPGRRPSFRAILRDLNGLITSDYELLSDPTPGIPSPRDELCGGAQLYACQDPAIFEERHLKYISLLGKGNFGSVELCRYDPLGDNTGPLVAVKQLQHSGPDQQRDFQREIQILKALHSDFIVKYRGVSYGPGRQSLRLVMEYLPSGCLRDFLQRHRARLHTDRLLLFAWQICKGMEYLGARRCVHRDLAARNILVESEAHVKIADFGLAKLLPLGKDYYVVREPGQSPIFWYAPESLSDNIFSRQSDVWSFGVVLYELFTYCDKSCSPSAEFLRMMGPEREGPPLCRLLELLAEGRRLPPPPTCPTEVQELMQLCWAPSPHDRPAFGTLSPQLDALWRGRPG
Kind of data set: Inhibition of JAK3 in anti-CD3/-CD28 coated mouse T cells assessed as reduction in IL2-induced STAT5 phosphorylation at 10 uM preincubated for 1 hr followed by IL2 stimulation and measured after 30 mins by Western blot analysis. As to conditions: T cell.

The target in data set [11] is T3, Tyrosine-protein kinase JAK3 (Mus musculus). Kind of data set: Inhibition of JAK3 in anti-CD3/-CD28 coated mouse T cells assessed as reduction in IL15-induced STAT5 phosphorylation at 10 uM preincubated for 1 hr followed by […] and measured after 30 mins by Western blot analysis. As to conditions: T cell.

3 compounds from ChEMBL document CHEMBL4680201, “Design, synthesis, and pharmacological evaluation of 4- or 6-phenyl-pyrimidine derivatives as novel and selective Janus kinase 3 inhibitors” (Eur J Med Chem, 2020) can be followed below.

Active and inactive are the calls of the source. No cut-off for these calls is given here.

T1 sequence (O60674 whole entry, the tested form may be a part): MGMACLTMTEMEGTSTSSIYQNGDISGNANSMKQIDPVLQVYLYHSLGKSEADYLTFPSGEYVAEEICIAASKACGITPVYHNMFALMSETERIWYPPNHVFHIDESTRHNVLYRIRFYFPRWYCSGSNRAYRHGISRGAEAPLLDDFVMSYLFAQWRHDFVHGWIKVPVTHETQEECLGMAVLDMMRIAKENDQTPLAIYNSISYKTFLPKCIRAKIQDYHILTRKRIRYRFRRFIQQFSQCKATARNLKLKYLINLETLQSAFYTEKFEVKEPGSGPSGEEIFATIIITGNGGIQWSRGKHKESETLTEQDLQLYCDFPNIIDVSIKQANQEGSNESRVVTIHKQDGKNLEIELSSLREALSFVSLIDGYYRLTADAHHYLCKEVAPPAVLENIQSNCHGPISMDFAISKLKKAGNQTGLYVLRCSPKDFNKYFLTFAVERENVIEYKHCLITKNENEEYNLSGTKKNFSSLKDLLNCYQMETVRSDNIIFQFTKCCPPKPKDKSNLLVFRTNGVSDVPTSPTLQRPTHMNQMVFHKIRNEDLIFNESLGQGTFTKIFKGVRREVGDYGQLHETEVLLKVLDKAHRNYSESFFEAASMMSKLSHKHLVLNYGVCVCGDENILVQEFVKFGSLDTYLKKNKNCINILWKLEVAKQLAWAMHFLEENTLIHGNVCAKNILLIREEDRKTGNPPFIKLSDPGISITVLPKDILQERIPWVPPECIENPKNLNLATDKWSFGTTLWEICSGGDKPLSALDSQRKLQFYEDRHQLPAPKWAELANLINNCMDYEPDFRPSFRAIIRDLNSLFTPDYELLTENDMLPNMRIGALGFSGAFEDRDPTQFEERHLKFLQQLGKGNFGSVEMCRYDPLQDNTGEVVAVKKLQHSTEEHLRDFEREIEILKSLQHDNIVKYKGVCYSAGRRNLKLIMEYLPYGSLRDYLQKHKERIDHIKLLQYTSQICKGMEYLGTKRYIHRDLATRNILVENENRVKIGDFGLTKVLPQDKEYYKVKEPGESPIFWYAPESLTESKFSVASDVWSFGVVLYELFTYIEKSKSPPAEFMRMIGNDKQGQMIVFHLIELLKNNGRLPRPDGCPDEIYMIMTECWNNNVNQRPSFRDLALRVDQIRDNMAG
Sequence of Non-receptor tyrosine-protein kinase TYK2 (P29597 whole entry, the tested form may be a part): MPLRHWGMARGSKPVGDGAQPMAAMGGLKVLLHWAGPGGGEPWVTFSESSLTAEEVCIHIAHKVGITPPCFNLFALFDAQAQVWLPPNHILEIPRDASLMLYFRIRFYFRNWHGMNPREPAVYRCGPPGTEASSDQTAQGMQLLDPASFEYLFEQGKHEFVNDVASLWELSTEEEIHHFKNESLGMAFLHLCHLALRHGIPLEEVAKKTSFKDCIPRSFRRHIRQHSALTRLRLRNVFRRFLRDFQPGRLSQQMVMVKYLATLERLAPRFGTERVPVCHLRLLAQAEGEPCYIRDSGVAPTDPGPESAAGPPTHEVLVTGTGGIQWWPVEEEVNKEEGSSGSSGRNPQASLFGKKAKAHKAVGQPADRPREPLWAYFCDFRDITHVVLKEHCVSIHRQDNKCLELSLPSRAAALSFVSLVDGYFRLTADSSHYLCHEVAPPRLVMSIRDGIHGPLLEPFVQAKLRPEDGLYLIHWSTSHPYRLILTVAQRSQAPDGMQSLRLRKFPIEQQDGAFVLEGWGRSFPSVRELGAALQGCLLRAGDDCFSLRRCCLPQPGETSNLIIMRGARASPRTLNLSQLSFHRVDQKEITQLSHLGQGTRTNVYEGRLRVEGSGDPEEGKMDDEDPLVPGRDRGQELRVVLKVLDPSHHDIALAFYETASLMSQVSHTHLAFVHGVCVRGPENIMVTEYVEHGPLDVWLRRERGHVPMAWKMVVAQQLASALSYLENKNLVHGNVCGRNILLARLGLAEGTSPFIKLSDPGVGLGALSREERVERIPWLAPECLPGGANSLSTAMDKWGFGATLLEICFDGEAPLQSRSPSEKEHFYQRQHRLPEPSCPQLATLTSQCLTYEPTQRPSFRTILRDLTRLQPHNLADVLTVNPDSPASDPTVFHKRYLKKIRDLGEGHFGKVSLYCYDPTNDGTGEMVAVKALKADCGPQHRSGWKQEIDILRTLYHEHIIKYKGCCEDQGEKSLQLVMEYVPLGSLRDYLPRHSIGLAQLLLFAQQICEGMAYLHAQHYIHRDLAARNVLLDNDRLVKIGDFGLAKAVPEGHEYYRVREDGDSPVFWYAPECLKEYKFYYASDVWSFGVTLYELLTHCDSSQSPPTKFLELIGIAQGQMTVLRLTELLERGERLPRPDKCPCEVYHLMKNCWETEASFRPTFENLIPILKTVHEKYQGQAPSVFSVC
Sequence of Tyrosine-protein kinase JAK1 (P23458 whole entry, the tested form may be a part): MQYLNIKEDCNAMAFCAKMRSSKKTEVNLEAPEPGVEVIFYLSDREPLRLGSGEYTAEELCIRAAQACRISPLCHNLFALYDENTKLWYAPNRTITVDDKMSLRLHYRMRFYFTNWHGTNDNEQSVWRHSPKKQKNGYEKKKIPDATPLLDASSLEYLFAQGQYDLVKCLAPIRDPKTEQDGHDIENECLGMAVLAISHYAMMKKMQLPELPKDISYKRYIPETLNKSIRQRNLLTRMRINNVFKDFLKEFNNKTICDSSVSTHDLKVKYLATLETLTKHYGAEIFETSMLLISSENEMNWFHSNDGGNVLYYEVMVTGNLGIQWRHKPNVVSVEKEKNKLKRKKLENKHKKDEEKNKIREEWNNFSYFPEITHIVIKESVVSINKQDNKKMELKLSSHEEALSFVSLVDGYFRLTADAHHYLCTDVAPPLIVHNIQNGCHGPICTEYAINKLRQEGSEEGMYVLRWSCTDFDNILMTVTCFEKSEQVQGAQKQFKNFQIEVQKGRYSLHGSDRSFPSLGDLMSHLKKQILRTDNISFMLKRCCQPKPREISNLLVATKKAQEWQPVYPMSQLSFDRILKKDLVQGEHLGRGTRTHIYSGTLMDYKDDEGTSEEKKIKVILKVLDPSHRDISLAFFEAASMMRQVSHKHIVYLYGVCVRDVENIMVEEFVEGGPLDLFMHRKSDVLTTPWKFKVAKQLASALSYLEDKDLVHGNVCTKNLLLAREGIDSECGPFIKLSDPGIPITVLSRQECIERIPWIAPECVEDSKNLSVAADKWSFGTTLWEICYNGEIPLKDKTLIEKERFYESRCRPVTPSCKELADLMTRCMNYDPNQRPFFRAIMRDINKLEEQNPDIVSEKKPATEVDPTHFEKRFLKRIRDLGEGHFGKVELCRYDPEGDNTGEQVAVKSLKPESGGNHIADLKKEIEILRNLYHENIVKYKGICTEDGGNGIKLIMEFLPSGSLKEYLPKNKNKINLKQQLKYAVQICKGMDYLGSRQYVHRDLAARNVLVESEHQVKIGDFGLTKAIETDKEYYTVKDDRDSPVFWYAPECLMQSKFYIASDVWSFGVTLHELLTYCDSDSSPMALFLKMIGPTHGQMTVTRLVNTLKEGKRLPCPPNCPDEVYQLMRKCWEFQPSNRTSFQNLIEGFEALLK

For `CC[C@H]1CN(C(=O)NCC(F)(F)F)C[C@H]1C1C=NC2=CN=C3NC=CC3N21` (stereo partly specified), the IC50 in data set [1] was 120 nM. The Ratio IC50 in the data set listed under Homo sapiens [2] was found to be 19; in the data set listed under Homo sapiens [3], 49.

For the compound `C/C=C/C(=O)Nc1ccc(-c2ccnc(Nc3ccc(N4CCOCC4)cc3)n2)cc1`, the IC50 in [4] was 6.1 nM; in data set [5], 1410 nM; in data set [6], 1150 nM; in data set [7], > 3000 nM. Further, the Activity entry (in [8]; in data set [9]; in the data set on RAW264.7) was “Non-Toxic” in each case. Besides, the inhibition result in [10] and in [11] was “Active” each time.

For the compound `C=CC(=O)Nc1ccc(-c2ccnc(Nc3cnn(CCOC)c3)n2)cc1`, the IC50 in [4] was 9.1 nM; in data set [5], 1080 nM; in [6], 1560 nM; in [7], > 3000 nM. For the same compound, the Activity entry (in data set [8]; in [9]; in the data set with RAW264.7) was “Non-Toxic” each time. Also, the inhibition result in data set [10] and in data set [11] was “Active” each time.
